Measured values: patent publication US9888679B2, “Protection of progenitor cells and regulation of their differentiation” (Proteobioactives Pty Ltd, priority 2007, dated 2018)

Experiments:
[1] = system: Murine MSC line C3H10T1/2; assay: Proteoglycan biosynthesis (35S-GAG) in 7 day pellet cultures; format: cell-based; settings: 10 micrograms/mL; 7 day pellet culture; FIG. 15
Excerpt: FIG. 15. Bar graphs showing the concentration dependent effects of Pentosan Polysulfate (PPS), on the biosynthesis of Proteoglycans (PGs) as determined by the incorporation of radioactively labelled sulfate into the sulfated glycosaminoglycans (^35S-GAG) of PGs in 7 day pellet cultures of a murine progenitor cells (C3H10T1-2).
Murine Progenitor cells (cell lines C3H10T1/2 or ATDC5) purchased from RIKEN Cell Bank (Tsukuba, Japan) or human immunoselected Stro-1+ Progenitor cells (Mesoblast Ltd, Melbourne, Australia) were seeded in 2 ml screw-capped sterile centrifuge tubes and the total volume made-up to 1 ml with DMEM-High glucose medium containing 10% FBS. Progenitor cells were then centrifuged at 500 g for 10 min in a swing-out rotor at room temperature. The screw caps were loosened and the tubes placed in an incubator at 37° C., in a 5% CO2/95% air moist atmosphere. The pellets generally formed within 24 hours. Medium was changed daily in the first two days, then once every 2-3 days thereafter. […] Biosynthesis of ^35S-GAGs was determined as described for the monolayer cultures and the results expressed as ^35-S-GAGs/μg DNA.

[2] = system: Primary progenitor cells; assay: Differentiation in adipogenic media: adipocyte formation, Oil Red O; format: cell-based, human; settings: FIG. 8; for differentiation of progenitor cells into adipocytes: adipogenic media, 1.0, 5.0, 10 micrograms/mL
Experimental: FIG. 8. The Effects of Pentosan Polysulfate (PPS) on Human progenitor cell Differentiation: Adipocyte Formation. Primary progenitor cells were cultured in 96 well plates in non-adipogenic growth media (media control) or under adipogenic conditions (0.5 mM methylisobutylmethylxanthine, 0.5 μM hydrocortisone, and 60 μM indomethacin) in the presence of PPS at the indicated concentrations. On day 28, the presence of lipid laden adipocytes was determined using the lipophilic dye Oil Red O. The relative amount of solubilised lipid per μg of DNA/well was determined following the assessment of the total amount of DNA per well using a fluorogenic DNA stain (Hoeshst 33258). […] (A) Phase-contrast photomicrographs of Oil Red O labeled adipocytes at ×20 magnification.
The conditions required for the development of lipids from human bone marrow stromal cells in vitro have been previously described (Gimble J. Marrow stromal adipocytes. In: Marrow stromal cell culture. J N Beresford, Owen, M. E., ed. Cambridge University Press, Cambridge, pp 67-87 (1998)). Briefly, human progenitor cells were seeded into 96-well plates at a density of 8×10^3 cells per well in complete alpha-MEM growth media and were allowed to reach >90% confluence prior to addition of inductive media. Cells were cultured in adipogenic-inductive media comprised of complete alpha-MEM supplemented with 0.5 mM 3-Isobutyl-1-methyl-xanthine (IBMX), 60 microM Indomethacin, and 0.5 microM Hydrocortisone in the presence of a titration of PPS (0.0, 1.0, 5.0, 10 micrograms/mL). The inductive media was changed twice weekly for a period of 4 weeks. Cells were stained for the presence of lipid using Oil Red ‘O’.
Cells were cultured as described above and gently rinsed in 1×PBS (pH7.4) to avoid disruption of the cell monolayer. Cells were fixed in phosphate buffered formalin for 15 minutes at RT. The fixative was subsequently removed and lipid stained by adding 100 microL of freshly filtered Oil Red O (3 mg/mL; MP Biomedicals, Australia) for ≧2 hours at RT. […]

[3] = system: Primary human progenitor cells; assay: Progenitor cell proliferation, WST-1 assay; format: cell-based; settings: FIG. 4
Experimental: (§1) FIG. 4. The Effects of Pentosan Polysulfate (PPS) on Human Progenitor cell Proliferation. Primary human progenitor cells were cultured in 24 well plates in growth media supplemented with PPS at the indicated concentrations. At various time intervals (day 1, 3, 6), the growth media was removed and replaced with phenol red free media containing the tetrazolium salt WST-1 for 2 hours at 37° C./5% CO2. WST-1 is cleaved by mitochondrial dehydrogenase in viable cells to produce a formazan dye that can be detected using an ELISA plate reader at a wavelength of 450 nm. Absorbance at 450 nm for each time point is shown for all concentrations of PPS.
FIG. 20. […] At various time intervals (day 3 & 5), the growth media was removed and replaced with phenol red free media containing the tetrazolium salt WST-1 for 2 hours at 37° C./5% CO2. Absorbance at 450 nm for each time point is shown for all concentrations of PPS and HA.
as §1, with “Primary” for “FIG. 4. The Effects of Pentosan Polysulfate (PPS) on Human Progenitor cell Proliferation. Primary”

For pentosan polysulfate [PPS], which “increase of proteoglycan synthesis, of the control values” [1] is on record?
Its value is “more than 80%”.

And the “adipocyte number (Oil Red O lipid per μg DNA)” value ([2]; adipogenic conditions, day 28, PPS in excess 1 ug/ml, p<0.01, ANOVA)?
Its value is “statistically significant increase in adipocyte number”.

What about the “differentiation of progenitor cells into adipocytes” value [2] of the same substance?
The value was “upregulation seen at all concentrations”.

And the “differentiation of progenitor cells into adipocytes” value ([2]; listed as polysulfated polysaccharides)?
Its value is “showed differentiated to adipocytes”.

What about the “cell division (WST-1 cleavage assay)” value ([3]; 1-5 micrograms/mL, monolayer) of the same substance?
Its value is “Marked stimulation of cell division”.

What about the “proliferation (WST-1, absorbance at 450 nm)” value ([3]; day 6, PPS in excess of 1 μg/ml, p<0.01, ANOVA) of the same substance?
The value was “statistically significant increase in proliferation”.
